From patent publication US7709516B2, “Helix 12 directed non-steroidal antiandrogens” (Endorecherche, Inc., priority 2005, dated 2010)
Read-outs that look alike come from different tables or passages of the source.

Tests used:
[1] = tested on: Shionogi mouse mammary carcinoma cells; assay: Androgenic/antiandrogenic activity: inhibition of DHT-stimulated Shionogi cell number; type: cell-based; conditions: DHT-stimulated Shionogi cell number
Human Androgen Receptor = biological target: T1, Human Androgen Receptor (Homo sapiens, UniProt P10275); assay: Androgen receptor binding assay ([3H]R1881, HAP) in cytosol of HEK-293 cells transfected with hAR; conditions: relative to R1881 = 100, transfected cells
T1 sequence (P10275 1-920): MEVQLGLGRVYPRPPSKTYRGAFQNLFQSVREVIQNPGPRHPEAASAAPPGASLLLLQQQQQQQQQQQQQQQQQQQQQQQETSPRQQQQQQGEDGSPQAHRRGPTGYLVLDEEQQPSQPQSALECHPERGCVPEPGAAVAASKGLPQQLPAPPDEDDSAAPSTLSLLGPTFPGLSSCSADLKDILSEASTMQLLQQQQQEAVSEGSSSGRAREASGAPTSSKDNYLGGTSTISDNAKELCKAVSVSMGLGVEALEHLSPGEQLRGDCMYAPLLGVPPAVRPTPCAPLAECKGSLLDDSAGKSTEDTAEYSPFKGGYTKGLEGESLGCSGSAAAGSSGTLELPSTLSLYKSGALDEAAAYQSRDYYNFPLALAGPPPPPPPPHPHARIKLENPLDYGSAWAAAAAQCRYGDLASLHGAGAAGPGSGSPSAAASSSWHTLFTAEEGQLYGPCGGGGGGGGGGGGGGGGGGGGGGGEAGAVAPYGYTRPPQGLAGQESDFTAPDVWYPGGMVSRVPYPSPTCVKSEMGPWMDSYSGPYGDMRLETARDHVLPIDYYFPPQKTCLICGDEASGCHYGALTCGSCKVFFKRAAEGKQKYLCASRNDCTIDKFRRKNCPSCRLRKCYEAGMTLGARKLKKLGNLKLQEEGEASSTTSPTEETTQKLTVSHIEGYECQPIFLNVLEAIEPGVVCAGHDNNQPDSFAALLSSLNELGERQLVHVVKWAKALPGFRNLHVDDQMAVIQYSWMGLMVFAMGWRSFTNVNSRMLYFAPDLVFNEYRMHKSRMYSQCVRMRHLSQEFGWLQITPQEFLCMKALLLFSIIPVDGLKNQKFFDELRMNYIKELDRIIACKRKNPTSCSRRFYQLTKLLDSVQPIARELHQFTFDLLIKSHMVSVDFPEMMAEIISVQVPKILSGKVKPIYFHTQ

[2] = tested on: rat prostate, seminal vesicle, levator ani muscle; assay: Systemic antiandrogenic activity in orchidectomized immature male rats with DHT implant; type: in vivo; conditions: for inhibition in vivo at 0.5 mg: Rattus norvegicus, 168 h; for Prostate % inhibition / Lev Ani % inhibition / SV % inhibition: Table 2
[3] = read-out: Prostate % inhibition, Table 1, rat +DHT, s.c. or p.o. (route not marked in cell), 0.5 mg/animal daily 7 days
[4] = read-out: SV % inhibition, Table 1, rat +DHT, s.c. or p.o. (route not marked), seminal vesicle, 0.5 mg/animal daily 7 days
[5] = Mus musculus, read-out: Shionogi Antiandrogenic Activity IC50, Table 1
[6] = read-out: Lev Ani % inhibition, Table 1, rat +DHT, s.c. or p.o. (route not marked), levator ani, 0.5 mg/animal daily 7 days
[7] = Mus musculus, read-out: Shionogi Antiandrogenic Activity IC50, Table 2
[8] = read-out: Lev Ani % inhibition, Table 2, rat +DHT, s.c. or p.o. (route not marked), levator ani, 0.5 mg/animal daily 7 days
[9] = read-out: Prostate % inhibition, Table 2, rat +DHT, s.c. or p.o. (route not marked), 0.5 mg/animal daily 7 days
[10] = read-out: SV % inhibition, Table 2, rat +DHT, s.c. or p.o. (route not marked), seminal vesicle, 0.5 mg/animal daily 7 days
[11] = Mus musculus, Table 2, read-out: Shionogi Antiandrogenic Activity IC50
[12] = read-out: Prostate % inhibition
[13] = rat +DHT, s.c. or p.o. (route not marked), 0.5 mg/animal daily 7 days
[14] = rat +DHT, s.c. or p.o. (route not marked), levator ani, 0.5 mg/animal daily 7 days
[15] = rat +DHT, s.c. or p.o. (route not marked), seminal vesicle, 0.5 mg/animal daily 7 days

| SMILES | Human Androgen Receptor Binding (%) RBA R1881 = 100 (Human Androgen Receptor; Table 1) [%] | inhibition in vivo at 0.5 mg [2, 3] [%] | inhibition in vivo at 0.5 mg [2, 4] [%] | IC50 [1, 5] [nM] | inhibition in vivo at 0.5 mg [2, 6] [%] | Human Androgen Receptor Binding (%) RBA R1881 = 100 (Human Androgen Receptor; Table 2) [%] | other results |
| --- | --- | --- | --- | --- | --- | --- | --- |
| CN(C)Cc1ccc(OCCCN2C(=O)N(c3ccc(C#N)c(C(F)(F)F)c3)C(=O)C2(C)C)cc1 [EM-7334, 4-{3-[3-(4-Dimethylaminomethyl-phenoxy)-propyl]-4,4-dimethyl-2,5-dioxo-imidazolidin-1-yl}-2-trifluoromethyl-benzonitrile] | 0.5 | 14 | 26 | – | – | – | IC50 ([1]; Mus musculus, Table 1, read-out: Shionogi Antiandrogenic Activity IC50): 118 nM |
| CC1(C)C(=O)N(c2ccc(C#N)c(C(F)(F)F)c2)C(=S)N1CCCOc1ccc(CN2CCC(O)C2)cc1 (stereo not drawn) [EM-7365] | 24.0 | 22 | 43 | 6 | 19 | – | – |
| Cc1cc(CN2CCOCC2)ccc1OCCCN1C(=S)N(c2ccc(C#N)c(C(F)(F)F)c2)C(=O)C1(C)C [EM-7366] | 209.0 | 26 | 70 | 22 | 16 | – | – |
| CC1(C)C(=O)N(c2ccc(C#N)c(C(F)(F)F)c2)C(=S)N1CCCOc1ccc(CN2CCC(=O)C2)cc1 [EM-7371] | 53.0 | 16 | 48 | 15 | 21 | – | – |
| Cc1cc(CN2CCCC2)ccc1OCCC1(O)CCN(c2ccc(C#N)c(C(F)(F)F)c2)CC1 [EM-7657] | – | – | – | – | – | 3.0 | IC50 [1, 7]: 22 nM; inhibition in vivo at 0.5 mg [2, 8]: 55%; inhibition in vivo at 0.5 mg [2, 9]: 24%; inhibition in vivo at 0.5 mg [2, 10]: 41% |
| Cc1cc(CN2CCOCC2)ccc1OCCC1(O)CCN(c2ccc(C#N)c3ccccc23)CC1 [EM-7676] | – | – | – | – | – | 0.3 | IC50 [1, 11]: 147 nM; inhibition in vivo at 0.5 mg ([2]; read-out: Lev Ani % inhibition): 0%; inhibition in vivo at 0.5 mg [2, 12]: 0%; inhibition in vivo at 0.5 mg ([2]; read-out: SV % inhibition): 3% |
| Cc1cc(CN2CCCC2)ccc1OCCC1(O)CCN(c2ccc(C#N)c(Cl)c2)CC1 [EM-7678] | – | – | – | – | – | 3.5 | IC50 [1, 7]: 13.8 nM; Prostate % inhibition [2, 13]: 7%; Lev Ani % inhibition [2, 14]: 9%; SV % inhibition [2, 15]: 10% |
| CCC(NC1CCCCC1)c1ccc(COCCN2CCN(c3ccc(C#N)c(C(F)(F)F)c3)CC2)cc1 (stereo not drawn) [EM-7727] | – | – | – | – | – | <1.0 | IC50 [1, 7]: 70.4 nM; inhibition in vivo at 0.5 mg [2, 8]: 0%; inhibition in vivo at 0.5 mg [2, 9]: 0%; inhibition in vivo at 0.5 mg [2, 10]: 8% |
| Cc1cc(CN2CCCC2)ccc1OCCC1(O)CCN(c2ccc(C#N)c(Cl)c2)CC1 [EM-7735] | – | – | – | – | – | 9.6 | IC50 ([1]; read-out: Shionogi Antiandrogenic Activity IC50, Table 2): 7.9 nM; Prostate % inhibition [2, 13]: 0%; Lev Ani % inhibition [2, 14]: 29%; SV % inhibition [2, 15]: 23% |
| CCC(c1ccc(OCCC2(O)CCN(c3ccc(C#N)c4ccccc34)CC2)cc1)N1CCCC1 (stereo not drawn) [EM-7738] | – | – | – | – | – | 10.5 | IC50 [1, 11]: 18.3 nM; inhibition in vivo at 0.5 mg ([2]; read-out: Lev Ani % inhibition): 10%; inhibition in vivo at 0.5 mg [2, 12]: 0%; inhibition in vivo at 0.5 mg ([2]; read-out: SV % inhibition): 16% |
| Cc1cc(CN2CCCC2)ccc1OCCCN1C(=S)N(c2ccc(C#N)c3ccccc23)C(=O)C1(C)C [EM-7775] | 13.2 | 0 | 25 | 60.5 | 10 | – | – |
| Cc1cc(CN2CCCC2C)ccc1OCCC1(O)CCN(c2ccc(C#N)c(Cl)c2)CC1 (stereo not drawn) [EM-7791] | – | – | – | – | – | 1.0 | IC50 [1, 7]: 20.5 nM; inhibition in vivo at 0.5 mg [2, 8]: 14%; inhibition in vivo at 0.5 mg [2, 9]: 0%; inhibition in vivo at 0.5 mg [2, 10]: 29% |
| CCC(CC)NC(CC)c1ccc(COCCN2CCN(c3ccc(C#N)c(C(F)(F)F)c3)CC2)cc1 (stereo not drawn) [EM-7792] | – | – | – | – | – | <1.0 | IC50 [1, 7]: 82.9 nM; inhibition in vivo at 0.5 mg [2, 8]: 7%; inhibition in vivo at 0.5 mg [2, 9]: 21%; inhibition in vivo at 0.5 mg [2, 10]: 0% |
| CC1(C)C(=O)N(c2ccc(C#N)c(Cl)c2)C(=S)N1CCCOc1ccc(CNC2CCCC2)cc1 [EM-7819] | 12.9 | 54 | 80 | 8.3 | 44 | – | – |
| CN(C)Cc1ccc(OCCCN2C(=S)N(c3ccc(C#N)c(Cl)c3)C(=O)C2(C)C)cc1 [EM-7821] | 6.1 | 50 | 75 | 5.2 | 32 | – | – |
| CC(C)NCc1ccc(OCCCN2C(=S)N(c3ccc(C#N)c(Cl)c3)C(=O)C2(C)C)cc1 [EM-7822] | 4.9 | 53 | 82 | 5.9 | 60 | – | – |
| CC(C)NCc1ccc(OCCCN2C(=S)N(c3ccc(C#N)c(C(F)(F)F)c3)C(=O)C2(C)C)nc1 [EM-7848] | 0.5 | 51 | 86 | 11.4 | 68 | – | – |
| CC(C)NCc1ccc(OCCCN2C(=S)N(c3ccc(C#N)c(C(F)(F)F)c3)C(=O)C2(C)C)c(F)c1 [EM-7918] | 16.9 | 44 | 64 | 6.6 | 53 | – | – |
| CC(C)NCc1ccc(OCCCN2C(=S)N(c3ccc(C#N)c(C(F)(F)F)c3)C(=O)C2(C)C)c(Cl)c1 [EM-7919] | 29.0 | 28 | 53 | 6.7 | 9 | – | – |
| CC(C)NCc1ccc(OCCCN2C(=S)N(c3ccc(C#N)c(C(F)(F)F)c3)C(=O)C2(C)C)cn1 [EM-7926] | 1.5 | 44 | 72 | 7.9 | 14 | – | – |
